Literature values as cited in patent publication US20210214291A1, “Rapid Thermal Isomerization of Lycopene” (priority 2020, published 2021).
Where two headings read alike, the source gives them in different places.

Experiments:
[1] = tested on: super oxide dismutase (SOD) activity; conditions: for increase in SOD activity: patients
[2] = organic solvents, 24 hrs

SMILES | increase in SOD activity ([1]; daily 6 mg for 8 wks) [units per milliliter] | increase in SOD activity ([1]; daily 15 mg for 8 wks) [units per milliliter] | reduction in C-reactive protein (CRP) levels ([1]; high dose group (15 mg daily, 8 wks)) [%] | isomerization ratio to the cis-isomer ([2]; 4 C) [%] | isomerization ratio to the cis-isomer ([2]; 50 C) [%]
CC(C)=CCC/C(C)=C/C=C/C(C)=C/C=C/C(C)=C/C=C/C=C(C)/C=C/C=C(C)/C=C/C=C(\C)CCC=C(C)C [lycopene] | 1.73 | 2.37 | 57 |  | 
CC(C)=CCC/C(C)=C/C=C/C(C)=C/C=C/C(C)=C/C=C/C=C(C)/C=C/C=C(C)/C=C/C=C(\C)CCC=C(C)C [trans-lycopene] |  |  |  | 11.4 | 77.8
